# Values quoted from earlier work, collected in patent publication US20110092532A1 (priority 2009, published 2011).
# Where two headings read alike, the source gives them in different places.
# Tests used:
# [1] = rats, after oral ingestion, portal vein not shunted
# [2] = test system: patients with motor fluctuations
# [3] = test system: healthy volunteers; settings: healthy male volunteers, no anti-emetic drugs
# [4] = test system: Cat; settings: subcutaneous
# [5] = test system: Dog; settings: in vivo, sc
# [6] = SL apomorphine, three patients with motor fluctuations
compound,measurement,setting,value
CN1CCc2cccc3c2[C@H]1Cc1ccc(O)c(O)c1-3 [apomorphine],tissue levels of apomorphine,[1],not detectable
same,duration of effect,[2]; [6],15 to 100 min
same,latency to effect,[2]; [6],20 to 40 min
same,"""off"" periods","[2]; one patient, SL apomorphine as adjunct with levodopa, during one month",large decrease
same,Tmax,intranasal route,23 min
same,lag time,intranasal route,2.8 min
same,Tmax,subcutaneous route,18 min
same,lag time,subcutaneous route,3.9 min
same,amount of intravenous apomorphine which will reliably induce emesis,[3],2.5 mg
same,Reversible Toxicity Seen,[4],136 mg/kg
same,Reversible Toxicity Seen,[5],36 to 71 mg/kg
